Source: patent publication US10563263B2, “Genetic polymorphisms associated with statin response and cardiovascular diseases, methods of detection and uses thereof” (CELERA CORPORATION, priority 2010, dated 2020)

Tested on: CHD (death from CHD, nonfatal MI, or revascularization)
Assay: WOSCOPS: SNP by pravastatin treatment interaction, logistic regression (synergy index), CHD endpoint
Type: in vivo, human
Conditions: for OR (synergy index): WOSCOPS
Description: CARE was a secondary prevention trial and WOSCOPS was a primary prevention trial.
The CHD endpoint was defined in the analyses herein of CARE as a composite endpoint of fatal CHD, definite non-fatal MI, or revascularization, and was defined in the analyses herein of WOSCOPS as a composite endpoint of death from CHD, nonfatal MI, or revascularization. In both the CARE and WOSCOPS analyses herein, the CVD endpoint was defined as a composite endpoint of CHD or stroke. […] Revascularization, which can include percutaneous transluminal coronary angioplasty (PTCA), stent placement, and coronary artery bypass graft (CABG), are medical interventions that indicate the presence of CHD.
Cohort and case-only study designs were used to identify SNPs associated with response to statin treatment.
For each SNP, a logistic regression model having treatment status as the dependent variable and SNP as the independent predictor variable was performed, with terms for age, sex and race included in the model as covariates. The anti-log of the regression coefficient corresponding to the SNP is an estimate of the synergy index (SI) (Davis et al., “Imputing gene-treatment interactions when the genotype distribution is unknown using case-only and putative placebo analyses-a new method for the Genetics of Hypertension Associated Treatment (GenHAT) study”, Statistics in Medicine 23: (2004), pages 2413-2427). The SI is a ratio of odds ratios: for example in the CARE and WOSCOPS studies, the SI represents the factor by which the odds-ratio of statin treatment, compared with placebo, among major homozygous individuals is multiplied by in order to obtain the odds-ratio of treatment vs. placebo among heterozygous individuals; and multiplied by a second time to obtain the odds-ratio of treatment vs. placebo in minor homozygous individuals. The case-only study design results in a valid estimate of the SI under the assumption that genotype and treatment are independent in the population. In a randomized clinical trial, genotype and treatment are independent by design. The p-value for the regression coefficient corresponding to the SNP results from a test of the null hypothesis that the regression coefficient is equal to zero (SI is equal to one) and thus small p-values indicate the SI is unlikely equal to one and that the effect of treatment likely differs by genotype. […]

**Q.** For `CC[C@H](C)C(=O)O[C@H]1C[C@H](O)C=C2C=C[C@H](C)[C@H](CC[C@@H](O)C[C@@H](O)CC(=O)O)[C@H]21` [Pravastatin, pravastatin], which “WOSCOPS OR” value (rs4726711, source CaseOnly, model add, endpoint CHD) is on record?
**A.** 0.62

**Q.** And the “OR (synergy index)” value (rs4736802 allele G, DOM model, Imputed)?
**A.** 1.614

**Q.** And the “OR (synergy index)” value (rs4760785 allele A, ADD model, Imputed)?
**A.** 0.7714

**Q.** And the “OR (synergy index)” value (rs4760785 allele A, DOM model, Imputed)?
**A.** 0.5986

**Q.** What about the “OR (synergy index)” value (rs4760894 allele T, ADD model, Imputed) of the same compound?
**A.** 0.7714

**Q.** What about the “OR (synergy index)” value (rs4760894 allele T, DOM model, Imputed) of the same compound?
**A.** 0.5986

**Q.** And the “OR (synergy index)” value (rs4760895 allele A, ADD model, Imputed)?
**A.** 0.7714

**Q.** And the “OR (synergy index)” value (rs4760895 allele A, DOM model, Imputed)?
**A.** 0.5986

**Q.** What about the “OR (synergy index)” value (rs4764738 allele A, ADD model, Imputed) of the same compound?
**A.** 1.555

**Q.** And the “OR (synergy index)” value (rs4764974 allele T, ADD model, Imputed)?
**A.** 1.512

**Q.** And the “OR (synergy index)” value (rs4798366 allele G, REC model, Imputed)?
**A.** 2.304

**Q.** And the “WOSCOPS OR” value (rs4830819, source CaseOnly, model add, endpoint CHD)?
**A.** 0.66

**Q.** And the “OR (synergy index)” value (rs4836502 allele T, DOM model, Imputed)?
**A.** 0.6887

**Q.** What about the “OR (synergy index)” value (rs4836507 allele C, DOM model, Imputed) of the same compound?
**A.** 0.6884

**Q.** What about the “OR (synergy index)” value (rs4836744 allele A, ADD model, Imputed) of the same compound?
**A.** 0.7704

**Q.** What about the “OR (synergy index)” value (rs4836744 allele A, DOM model, Imputed) of the same compound?
**A.** 0.6637

**Q.** What about the “WOSCOPS OR” value (rs4836745, Source caseonly) of the same compound?
**A.** 0.65

**Q.** What about the “OR (synergy index)” value (rs4848944 allele C, REC model, Genotyped) of the same compound?
**A.** 0.464

**Q.** What about the “OR (synergy index)” value (rs4851529 allele A, DOM model, Imputed) of the same compound?
**A.** 0.5663

**Q.** And the “OR (synergy index)” value (rs4851531 allele T, DOM model, Imputed)?
**A.** 0.5588

**Q.** And the “WOSCOPS OR” value (rs4870109, Source caseonly)?
**A.** 1.47

**Q.** What about the “OR (synergy index)” value (rs4878214 allele A, ADD model, Imputed) of the same compound?
**A.** 0.7413

**Q.** What about the “OR (synergy index)” value (rs4880803 allele A, ADD model, Imputed) of the same compound?
**A.** 0.7588

**Q.** And the “OR (synergy index)” value (rs4896568 allele T, DOM model, Imputed)?
**A.** 0.5426

**Q.** What about the “WOSCOPS OR” value (rs4924215, source CaseOnly, model dom, endpoint CHD) of the same compound?
**A.** 1.46

**Q.** And the “OR (synergy index)” value (rs4938851 allele T, DOM model, Imputed)?
**A.** 1.301

**Q.** And the “OR (synergy index)” value (rs4964416 allele C, DOM model, Imputed)?
**A.** 0.6799

**Q.** And the “WOSCOPS OR” value (rs5750116, source cohort, model dom, endpoint CHD)?
**A.** 1.45

**Q.** And the “OR (synergy index)” value (rs5756669 allele C, DOM model, Imputed)?
**A.** 1.541

**Q.** And the “OR (synergy index)” value (rs6033138 allele C, ADD model, Imputed)?
**A.** 1.407

**Q.** What about the “OR (synergy index)” value (rs6033138 allele C, REC model, Imputed) of the same compound?
**A.** 1.414

**Q.** And the “OR (synergy index)” value (rs6040619 allele C, ADD model, Imputed)?
**A.** 1.488

**Q.** And the “OR (synergy index)” value (rs6040619 allele C, REC model, Imputed)?
**A.** 1.688

**Q.** And the “OR (synergy index)” value (rs6040625 allele T, ADD model, Imputed)?
**A.** 1.479

**Q.** What about the “OR (synergy index)” value (rs6040625 allele T, REC model, Imputed) of the same compound?
**A.** 1.634

**Q.** And the “OR (synergy index)” value (rs6040630 allele A, ADD model, Imputed)?
**A.** 1.42

**Q.** And the “OR (synergy index)” value (rs6040630 allele A, REC model, Imputed)?
**A.** 1.462

**Q.** What about the “OR (synergy index)” value (rs6040633 allele A, ADD model, Imputed) of the same compound?
**A.** 1.407

**Q.** What about the “WOSCOPS OR” value (rs6080603, source CaseOnly, model dom, endpoint CHD) of the same compound?
**A.** 0.68

**Q.** What about the “WOSCOPS OR” value (rs6474228, Source caseonly) of the same compound?
**A.** 1.83

**Q.** And the “WOSCOPS OR” value (rs6491586, source CaseOnly, model dom, endpoint CHD)?
**A.** 1.78

**Q.** And the “WOSCOPS OR” value (rs6505669, source CaseOnly, model dom, endpoint CHD)?
**A.** 1.37

**Q.** What about the “WOSCOPS OR” value (rs6585412, Source caseonly) of the same compound?
**A.** 1.44

**Q.** And the “WOSCOPS OR” value (rs6998016, Source caseonly)?
**A.** 9.63

**Q.** And the “WOSCOPS OR” value (rs7018577, Source caseonly)?
**A.** 1.94

**Q.** What about the “WOSCOPS OR” value (rs7078016, Source caseonly) of the same compound?
**A.** 1.44

**Q.** What about the “WOSCOPS OR” value (rs7193741, source cohort, model rec, endpoint CHD) of the same compound?
**A.** 1.87

**Q.** And the “WOSCOPS OR” value (rs7305949, Source caseonly)?
**A.** 1.74

**Q.** What about the “WOSCOPS OR” value (rs7332076, Source caseonly) of the same compound?
**A.** 2.18

**Q.** What about the “WOSCOPS OR” value (rs7449527, Source caseonly) of the same compound?
**A.** 1.71

**Q.** What about the “WOSCOPS OR” value (rs7521242, source CaseOnly, model add, endpoint CHD) of the same compound?
**A.** 0.74

**Q.** What about the “WOSCOPS OR” value (rs7625204, source cohort, model add, endpoint CHD) of the same compound?
**A.** 1.38

**Q.** And the “WOSCOPS OR” value (rs7629632, source CaseOnly, model dom, endpoint CHD)?
**A.** 1.72

**Q.** And the “WOSCOPS OR” value (rs7705993, source CaseOnly, model add, endpoint CHD)?
**A.** 1.44

**Q.** What about the “WOSCOPS OR” value (rs7742508, source cohort, model dom, endpoint CHD) of the same compound?
**A.** 1.93

**Q.** What about the “WOSCOPS OR” value (rs7839562, Source caseonly) of the same compound?
**A.** 1.63

**Q.** And the “WOSCOPS OR” value (rs7916629, Source caseonly)?
**A.** 1.66

**Q.** And the “WOSCOPS OR” value (rs9446187, source cohort, model dom, endpoint CHD)?
**A.** 2.05

**Q.** And the “WOSCOPS OR” value (rs9859901, source CaseOnly, model add, endpoint CHD)?
**A.** 0.41

**Q.** And the “WOSCOPS OR” value (rs10120126, source CaseOnly, model dom, endpoint CHD)?
**A.** 0.48

**Q.** And the “WOSCOPS OR” value (rs10155047, source cohort, model add, endpoint CHD)?
**A.** 0.50

**Q.** And the “WOSCOPS OR” value (rs10189905, source cohort, model add, endpoint CHD)?
**A.** 0.56

**Q.** What about the “WOSCOPS OR” value (rs10305439, source CaseOnly, model dom, endpoint CHD) of the same compound?
**A.** 0.63

**Q.** What about the “WOSCOPS OR” value (rs10429616, source cohort, model rec, endpoint CHD) of the same compound?
**A.** 1.54

**Q.** And the “WOSCOPS OR” value (rs10497883, Source caseonly)?
**A.** 0.67

**Q.** And the “WOSCOPS OR” value (rs10500736, source cohort, model dom, endpoint CHD)?
**A.** 0.52

**Q.** What about the “WOSCOPS OR” value (rs10774580, Source caseonly) of the same compound?
**A.** 0.56

**Q.** And the “WOSCOPS OR” value (rs10814422, source CaseOnly, model dom, endpoint CHD)?
**A.** 0.46

**Q.** What about the “WOSCOPS OR” value (rs10935907, source CaseOnly, model dom, endpoint CHD) of the same compound?
**A.** 1.49

**Q.** What about the “WOSCOPS OR” value (rs10945874, Source caseonly) of the same compound?
**A.** 1.24

**Q.** What about the “WOSCOPS OR” value (rs10973013, source CaseOnly, model dom, endpoint CHD) of the same compound?
**A.** 0.48

**Q.** And the “WOSCOPS OR” value (rs11138314, Source cohort)?
**A.** 0.59

**Q.** What about the “WOSCOPS OR” value (rs11148285, Source caseonly) of the same compound?
**A.** 2.30

**Q.** And the “WOSCOPS OR” value (rs11585647, Source caseonly)?
**A.** 0.67

**Q.** What about the “WOSCOPS OR” value (rs11721179, Source caseonly) of the same compound?
**A.** 0.60

**Q.** And the “WOSCOPS OR” value (rs12556591, source CaseOnly, model add, endpoint CHD)?
**A.** 0.66

**Q.** What about the “WOSCOPS OR” value (rs13126170, Source caseonly) of the same compound?
**A.** 0.78

**Q.** And the “WOSCOPS OR” value (rs13129010, Source caseonly)?
**A.** 1.90

**Q.** What about the “WOSCOPS OR” value (rs13137776, source CaseOnly, model add, endpoint CHD) of the same compound?
**A.** 0.62

**Q.** What about the “WOSCOPS OR” value (rs13279522, source cohort, model add, endpoint CHD) of the same compound?
**A.** 0.63

**Q.** What about the “WOSCOPS OR” value (rs13318232, source CaseOnly, model dom, endpoint CHD) of the same compound?
**A.** 0.40

**Q.** And the “WOSCOPS OR” value (rs13431868, source CaseOnly, model dom, endpoint CHD)?
**A.** 1.42

**Q.** What about the “WOSCOPS OR” value (rs16885715, Source caseonly) of the same compound?
**A.** 1.58

**Q.** And the “WOSCOPS OR” value (rs17002013, Source caseonly)?
**A.** 1.66

**Q.** And the “WOSCOPS OR” value (rs17076974, source cohort, model add, endpoint CHD)?
**A.** 1.32

**Q.** And the “WOSCOPS OR” value (rs17138705, source CaseOnly, model add, endpoint CHD)?
**A.** 0.70

**Q.** And the “WOSCOPS OR” value (rs17688430, Source caseonly)?
**A.** 0.71

**Q.** And the “WOSCOPS OR” value (rs17706237, source CaseOnly, model dom, endpoint CHD)?
**A.** 1.52
